Test results as given in patent KR20170021349A, “다양한 질병의 치료를 위한 jnk 신호 전달 경로의 세포 투과성 펩타이드 억제자의 새로운 용도” (자이겐 인플라메이션 리미티드, priority 2014, dated 2017).

Experiments:
Wistar rats = test: Ligature-induced periodontitis; type: in vivo, rat; settings: day 17
[1] = Phase II trial, post-surgery intraocular inflammation, vs dexamethasone eye drops; type: in vivo, human
Sprague-Dawley rats = test: Bilateral renal ischemia reperfusion, histology; type: in vivo, rat
[2] = test system: female Sprague-Dawley rats; test: Cyclophosphamide (CYP)-induced acute cystitis, intravesical treatment; type: in vivo, rat; settings: 24 h after CYP
primary macrophages = test: Uptake into primary cultured macrophages (specific antibody); type: cell-based; settings: Fig. 24
[3] = Immunostaining of liver 24 h after 1 mg/kg i.v.; type: in vivo, rat; settings: Fig. 26
THP-1 cells = test: LPS-induced cytokine release; type: cell-based; settings: Fig. 27 A-C
murine T cells = test: PMA & ionomycin-induced cytokine production in primary cells; type: cell-based, mouse; settings: Fig. 28 D-E
[4] = Ocular MTD study, subconjunctival; type: in vivo, rabbit
[5] = Previous open-label dose-escalation trial in post-surgery/post-trauma intraocular inflammation; type: in vivo, human; settings: 45, 90, 450, 900 μg subconj., 20 patients

## NH2-DQSRPVQPFLNLTTPRKPRPPRRRQRRKKRG-COOH (H-DQSRPVQPFLNLTTPRKPRPPRRRQRRKKRG-OH; also: D-amino acids (positions not given here)) [XG-102]
Wistar rats
  alveolar bone height loss (ABHL): 골 파괴가 덜 심함
Wistar rats; gingival tissue ELISA
  IL1-β expression vs placebo: 현저하게 감소되었다
Wistar rats; single intragingival dose day 10
  gingival inflammation (GI) level: GI 수준을 강하게 감소시켰다
[1]; 90 μg
  AEs leading to interruption of study treatment, events (%): 11 (14.1%)
  mild AEs, number of events (% of reported events): 55 (70.5%)
  moderate AEs, number of events (%): 6 (7.7%)
  patients with an AE within 24 h of administration: 34%
  patients with intraocular pressure increased: 23%
  severe AEs, number of events (%): 17 (21.7%)
[1]; 90 μg (26 patients), p=0.025 vs dexamethasone
  SOC eye disorders, patients: 55%
[1]; 90 μg (N=47)
  premature withdrawal of study eye drops, patients (%): 10 (21.3%)
[1]; 90 μg and 900 μg
  overall tolerability: 내약성이 우수하였다
[1]; 90 μg and 900 μg, FAS
  anterior chamber cell grade vs dexamethasone, days 7 and 14: 통계적으로 현저한 차이가 없었다
  anterior chamber flare grade vs dexamethasone, days 7, 14, 28: 통계적으로 현저한 차이가 없었다
[1]; 90 μg single subconj. inj., PP, 95% CI -0.214-0.385, p=0.003
  difference in anterior chamber cell grade vs dexamethasone, day 28: 0.086
[1]; 90 μg, 31/47
  patients with an adverse event: 66%
[1]; 90 μg, FAS, 95% CI -0.215-0.321, p<0.001
  difference in anterior chamber cell grade vs dexamethasone, day 28: 0.053
[1]; 90 μg, FAS, day 7
  odds of cleared ocular inflammation vs usual treatment group: 0.52
[1]; 90 μg, FAS, day 14
  odds of cleared ocular inflammation vs usual treatment group: 0.85
[1]; 90 μg, FAS, day 28
  odds of cleared ocular inflammation vs usual treatment group: 1.24
[1]; 90 μg, PP, day 7
  odds of cleared ocular inflammation vs usual treatment group: 0.56
[1]; 90 μg, PP, day 14
  odds of cleared ocular inflammation vs usual treatment group: 0.97
[1]; 90 μg, PP, day 28
  odds of cleared ocular inflammation vs usual treatment group: 1.45
[1]; 90 μg, p=0.013 vs dexamethasone
  patients with rescue medication introduced: 21.3%
[1]; 900 μg
  AEs leading to interruption of study treatment, events (%): 8 (11.6%)
  mild AEs, number of events (%): 49 (71.0%)
  moderate AEs, number of events (%): 12 (17.4%)
  patients with an AE within 24 h of administration: 27%
  patients with intraocular pressure increased: 10%
  severe AEs, number of events (%): 8 (11.6%)
[1]; 900 μg (24 patients)
  SOC eye disorders, patients: 50%
[1]; 900 μg (N=48)
  premature withdrawal of study eye drops, patients (%): 8 (16.7%)
[1]; 900 μg single subconj. inj., PP, 95% CI -0.350-0.242, non-inferior p<0.001
  difference in anterior chamber cell grade vs dexamethasone, day 28: -0.054
[1]; 900 μg, 32/48
  patients with an adverse event: 67%
[1]; 900 μg, FAS, 95% CI -0.301-0.238, p<0.001
  difference in anterior chamber cell grade vs dexamethasone, day 28: -0.032
[1]; 900 μg, FAS, day 7
  odds of cleared ocular inflammation vs usual treatment group: 0.76
[1]; 900 μg, FAS, day 14
  odds of cleared ocular inflammation vs usual treatment group: 1.25
[1]; 900 μg, FAS, day 28
  odds of cleared ocular inflammation vs usual treatment group: 1.13
[1]; 900 μg, PP, day 7
  odds of cleared ocular inflammation vs usual treatment group: 0.84
[1]; 900 μg, PP, day 14
  odds of cleared ocular inflammation vs usual treatment group: 1.12
[1]; 900 μg, PP, day 28
  odds of cleared ocular inflammation vs usual treatment group: 1.26
[1]; 900 μg, not significant vs dexamethasone
  patients with rescue medication introduced: 14.6%
Sprague-Dawley rats; 2 mg/kg i.v. 20 min after reperfusion, 24 h, IR/vehicle 3.45 ± 0.52
  mean tubular epithelial degeneration/necrosis score (0-4): 2.67 ± 0.65
Sprague-Dawley rats; 2 mg/kg i.v., IR/vehicle 0/11
  animals with degeneration/necrosis score 2: 5/12
Sprague-Dawley rats; 2 mg/kg i.v., IR/vehicle 1.36 ± 0.67
  mean basophilic tubules score (0-4): 1.33 ± 0.65
Sprague-Dawley rats; 2 mg/kg i.v., IR/vehicle 3.00 ± 0.00
  tubular cast score (0-4): 2.50 ± 0.52
Sprague-Dawley rats; 2 mg/kg i.v., IR/vehicle 5/11
  animals with degeneration/necrosis score 4: 1/12
Sprague-Dawley rats; 2 mg/kg i.v., IR/vehicle 7.82 ± 0.98
  total tubular score: 6.50 ± 0.80
[2]; 50 mg/mL i.ves.
  AUC 1-8 g (allodynia) vs vehicle: 현저하게 감소되었다
  AUC 8-60 g (hyperalgesia) vs vehicle: 감소되었다
  haemorrhage score: 통계적으로 현저한 것에 이르지는 않았다
  nociceptive scores vs vehicle: 현저하게 감소시켰다
  urinary bladder wall thickness: 현저하게 감소되었다
[2]; 50 mg/mL, 500 μL i.ves.
  nociceptive threshold vs vehicle: 현저하게 증가하였다
Primary macrophages
  incorporation into primary macrophages: 강하게 병합된다
[3]
  accumulation in liver, especially Kupffer cells: 명백한 축적
THP-1 cells
  LPS-induced TNFa, IL-6, MCP-1 release: 사이토카인 방출을 억제한다
Murine T cells
  PMA & ionomycin-induced TNFa, IFNg production: 사이토카인 방출을 억제한다
[4]
  NOAEL: ~600 µg
[5]
  safety and tolerability: 안정하고 내약성이 우수하다
